The record followed here is PubChem BioAssay (NCI).

Among the test systems are PC-3 prostate; RXF 393 renal; MDA-MB-435; HS 578T breast; HT29 colon; 786-0 renal; SK-OV-3 ovarian; MCF7 breast; EKVX NSCLC; BT-549 breast.
Holding throughout (assay): NCI tumour cell line growth inhibition, 48 h

Molecules are shown by their SMILES.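 Each compound was tested at five concentrations against cells in 96-well plates for 48 hours. GI50 is the concentration that inhibits growth by half. Definition used: TGI = concentration required for complete inhibition of growth.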

As to `C=C1C(=O)O[C@H]2[C@H]1CC/C(COC(=O)NCCc1ccc(Br)cc1)=C\CC[C@@]1(C)O[C@@H]21`, the GI50 with PC-3 prostate was 1730 nM; in the assay on RXF 393 renal, 1200 nM; in the assay with MDA-MB-435, 1280 nM; in the assay with HS 578T breast, 2410 nM; in the assay on HT29 colon, 1320 nM; in the assay on 786-0 renal, 1040 nM. For the same compound, the GI50 in the assay with SK-OV-3 ovarian was 10800 nM; in the assay on MCF7 breast, 417 nM; with EKVX NSCLC, 1540 nM; in the assay with BT-549 breast, 1100 nM. For the same compound, the TGI with PC-3 prostate turned out to be 3320 nM; with RXF 393 renal, 2680 nM; with MDA-MB-435 it was 2810 nM; with HS 578T breast it was 7150 nM; in the assay with HT29 colon it was 3380 nM; with 786-0 renal, 2400 nM. In addition, the TGI worked out at 22800 nM with SK-OV-3 ovarian, 1820 nM in the assay on MCF7 breast, 3290 nM in the assay on EKVX NSCLC and 2600 nM with BT-549 breast.

Turning to `CN1c2cccc[c]2[Sn]([CH3])([CH3])[c]2ccccc21`, the GI50 in the assay on PC-3 prostate was 19.1 nM; in the assay on RXF 393 renal, 27.9 nM; in the assay on MDA-MB-435, less than 10 nM; in the assay on HS 578T breast it was 16.6 nM; in the assay on HT29 colon, less than 12 nM; in the assay on 786-0 renal it was less than 14 nM. Also, the GI50 in the assay with SK-OV-3 ovarian is less than 14.4 nM; in the assay on MCF7 breast, less than 10 nM; in the assay on EKVX NSCLC, less than 10 nM; in the assay with BT-549 breast, less than 10 nM. Further, the TGI was 154 nM in the assay on PC-3 prostate; 202 nM in the assay on RXF 393 renal; 29.1 nM in the assay on MDA-MB-435; 683 nM with HS 578T breast; less than 24.9 nM with HT29 colon; 124 nM in the assay on 786-0 renal. Further, the TGI in the assay on SK-OV-3 ovarian is less than 32.6 nM; in the assay on EKVX NSCLC it was less than 24.9 nM; with BT-549 breast, 165 nM.

For the compound `COc1cccc(/C=C/C(=O)c2cc3c(N)c(C(=O)Nc4ccccc4)sc3nc2C)c1`, the GI50 is 1470 nM in the assay on PC-3 prostate; 837 nM in the assay with RXF 393 renal; 989 nM in the assay with MDA-MB-435; 1920 nM in the assay on HS 578T breast; 1210 nM with HT29 colon; 802 nM in the assay on 786-0 renal. Besides, the GI50 in the assay with SK-OV-3 ovarian was 4960 nM; with MCF7 breast, 1690 nM; in the assay with EKVX NSCLC, 5800 nM; in the assay with BT-549 breast, 1190 nM. In addition, the TGI with PC-3 prostate is 5060 nM; with RXF 393 renal it was 1710 nM; with MDA-MB-435, 2860 nM; with HS 578T breast, more than 50000 nM; in the assay on HT29 colon it was 3420 nM; in the assay on 786-0 renal, 1720 nM. Also, the TGI was 19800 nM with SK-OV-3 ovarian, 8850 nM in the assay with MCF7 breast, 13100 nM in the assay with EKVX NSCLC and 4060 nM in the assay with BT-549 breast.

On to `CCN1C(=O)N(CC)C2C1NN=c1s/c(=C\c3ccc(Br)cc3)c(=O)n12` (stereo not drawn), for which the GI50 in the assay on PC-3 prostate was 168 nM; in the assay on RXF 393 renal, 147 nM; in the assay on MDA-MB-435 it was 25.2 nM; in the assay on HS 578T breast, 194 nM; in the assay with HT29 colon it was 75.7 nM; in the assay with 786-0 renal it was 163 nM. Further, the GI50 in the assay on SK-OV-3 ovarian is 1840 nM; in the assay with MCF7 breast, 44.3 nM; with EKVX NSCLC, 502 nM; in the assay on BT-549 breast it was 196 nM. The TGI with PC-3 prostate is more than 100000 nM; in the assay with RXF 393 renal, more than 100000 nM; with MDA-MB-435, 70.6 nM; in the assay on HS 578T breast it was more than 100000 nM; in the assay on HT29 colon it was more than 100000 nM; in the assay on 786-0 renal, more than 100000 nM. Moreover, the TGI with SK-OV-3 ovarian was more than 100000 nM; in the assay with MCF7 breast, more than 100000 nM; with EKVX NSCLC, more than 100000 nM; in the assay on BT-549 breast it was 16400 nM.

With `COc1cc(/C=C/[N+](=O)[O-])cc(OC)c1`, the GI50 in the assay with PC-3 prostate is 2940 nM; in the assay with RXF 393 renal it was 1750 nM; in the assay with MDA-MB-435, 2990 nM; in the assay with HS 578T breast, 4110 nM; in the assay with HT29 colon, 3080 nM; with 786-0 renal, 1740 nM. Also, the GI50 is 11100 nM with SK-OV-3 ovarian, 1390 nM in the assay with MCF7 breast, 4050 nM with EKVX NSCLC and 1850 nM in the assay with BT-549 breast. In addition, the TGI worked out at 8380 nM in the assay on PC-3 prostate; 3270 nM in the assay on RXF 393 renal; 10300 nM in the assay on MDA-MB-435; 23300 nM in the assay on HS 578T breast; 10400 nM in the assay on HT29 colon; 3310 nM in the assay on 786-0 renal. Also, the TGI with SK-OV-3 ovarian was 23100 nM; in the assay with MCF7 breast it was 3610 nM; with EKVX NSCLC, 27100 nM; in the assay with BT-549 breast, 3650 nM.

As for `O=[N+]([O-])c1ccc(NC(c2ccccc2)c2ccc3cccnc3c2O)cc1` (stereo not drawn), the GI50 in the assay with PC-3 prostate was 586 nM; with RXF 393 renal it was 698 nM; in the assay on MDA-MB-435, 422 nM; with HS 578T breast, 520 nM; in the assay on HT29 colon, 487 nM; with 786-0 renal it was 363 nM. The GI50 was 500 nM in the assay on SK-OV-3 ovarian, 335 nM with MCF7 breast, 393 nM in the assay on EKVX NSCLC and 601 nM in the assay on BT-549 breast. For the same compound, the TGI with PC-3 prostate, with RXF 393 renal, in the assay with MDA-MB-435, in the assay with HS 578T breast, with HT29 colon and in the assay on SK-OV-3 ovarian was more than 100000 nM in each case. In addition, the TGI in the assay with MCF7 breast was more than 100000 nM; in the assay on EKVX NSCLC, more than 100000 nM; in the assay on BT-549 breast it was 43200 nM.

Regarding `CN1CCN(CCCn2c3c(sc4ncccc43)c(=O)n3nnc(-c4ccccc4)c23)CC1`, the GI50 with PC-3 prostate is 1610 nM; with RXF 393 renal, 4400 nM; in the assay on MDA-MB-435 it was 1790 nM; in the assay on HS 578T breast it was 4820 nM; in the assay on HT29 colon, 1820 nM; in the assay on 786-0 renal, 5810 nM. In addition, the GI50 with SK-OV-3 ovarian is 18400 nM; with MCF7 breast, 1720 nM; in the assay with EKVX NSCLC, 2080 nM; with BT-549 breast it was 14700 nM. Besides, the TGI amounted to 4030 nM with PC-3 prostate; 8750 nM in the assay with RXF 393 renal; 3500 nM in the assay on MDA-MB-435; 12300 nM in the assay with HS 578T breast; 3880 nM with HT29 colon; 10700 nM in the assay on 786-0 renal. Moreover, the TGI came to 33300 nM with SK-OV-3 ovarian, 3160 nM in the assay with MCF7 breast, 5580 nM with EKVX NSCLC and 30600 nM with BT-549 breast.
